From patent publication US20230265116A1, “DEGRADATION OF (EGFR) BY CONJUGATION OF EGFR INHIBITORS WITH E3 LIGASE LIGAND AND METHODS OF USE” (BEIGENE, LTD., priority 2020, published 2023)

Legend:
[1] = molecular target: T1, EGFR L858R/T790M/C797S (BaF3-LTC cells) (Homo sapiens, UniProt P00533, C797S/L858R/T790M); test: EGFR degradation HTRF assay, BaF3-LTC cells; assay type: cell-based; conditions: BaF3-LTC, 16h treatment; for Dmax: maximum percentage of degradation, read-out: LTC Dmax (%); for DC50: read-out: LTC DC50
T1 construct: expressed in transfected cells; host or cells: BaF3
Procedure, shortened: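 Cells treated 16 h at 37 °C, 5% CO2 in medium with 0.2% DMSO; top final concentration 10 uM, 5-fold dilution, 8 doses. Lysates read by HTRF (665/620 nm); degradation % versus DMSO high control, DC50 from four-parameter fit, Dmax as maximal degradation.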

[2] = test system: EGFR Del19/T790M/C797S (BaF3-DTC cells); test: EGFR degradation HTRF assay, BaF3-DTC cells; assay type: cell-based; conditions: 16h treatment; for DTC Dmax (%): maximum percentage of degradation; for DC50: read-out: DTC DC50
Procedure, shortened: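 EGFR remaining after a 16 h, 37 °C exposure (8 doses, 5-fold steps from 10 uM final, 0.2% DMSO) was quantified by HTRF antibodies in cell lysate. Percent inhibition relative to DMSO control was fitted by four-parameter logistic to give DC50; Dmax denotes maximal degradation.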

T1 sequence (P00533 25-1210 T790M/C797S/L858R): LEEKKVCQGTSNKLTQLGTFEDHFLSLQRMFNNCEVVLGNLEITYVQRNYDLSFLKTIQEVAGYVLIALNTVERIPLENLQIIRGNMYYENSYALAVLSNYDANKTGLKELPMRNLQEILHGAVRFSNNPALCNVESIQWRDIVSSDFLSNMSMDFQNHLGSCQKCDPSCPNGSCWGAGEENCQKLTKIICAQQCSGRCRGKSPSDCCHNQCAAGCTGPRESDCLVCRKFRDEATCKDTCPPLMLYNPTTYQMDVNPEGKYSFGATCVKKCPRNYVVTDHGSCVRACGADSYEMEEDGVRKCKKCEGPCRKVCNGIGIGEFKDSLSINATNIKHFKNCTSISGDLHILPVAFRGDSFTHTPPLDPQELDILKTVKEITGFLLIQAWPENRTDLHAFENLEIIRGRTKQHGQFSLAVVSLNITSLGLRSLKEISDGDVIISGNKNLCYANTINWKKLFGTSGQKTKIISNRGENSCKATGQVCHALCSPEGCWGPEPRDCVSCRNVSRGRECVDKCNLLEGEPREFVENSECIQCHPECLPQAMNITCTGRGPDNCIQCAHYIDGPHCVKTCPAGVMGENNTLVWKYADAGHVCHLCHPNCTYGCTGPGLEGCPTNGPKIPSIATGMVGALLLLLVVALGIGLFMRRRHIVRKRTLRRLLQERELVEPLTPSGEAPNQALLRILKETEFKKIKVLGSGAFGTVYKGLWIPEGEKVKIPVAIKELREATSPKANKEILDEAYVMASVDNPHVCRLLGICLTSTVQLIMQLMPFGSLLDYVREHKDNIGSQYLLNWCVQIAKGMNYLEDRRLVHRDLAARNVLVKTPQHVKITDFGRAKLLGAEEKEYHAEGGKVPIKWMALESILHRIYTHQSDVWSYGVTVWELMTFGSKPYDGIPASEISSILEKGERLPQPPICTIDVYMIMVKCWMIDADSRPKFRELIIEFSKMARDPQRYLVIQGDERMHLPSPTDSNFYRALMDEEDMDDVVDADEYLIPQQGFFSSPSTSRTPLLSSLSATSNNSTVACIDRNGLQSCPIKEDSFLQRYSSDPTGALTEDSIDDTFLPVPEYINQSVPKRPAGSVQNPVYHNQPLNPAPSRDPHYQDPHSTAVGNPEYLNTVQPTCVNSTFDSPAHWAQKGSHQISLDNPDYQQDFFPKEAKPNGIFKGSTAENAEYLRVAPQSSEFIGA

SMILES | Dmax [1] | DC50 [1] | DTC Dmax (%) [2] | DC50 [2]
CCc1cc(Nc2ncc(Br)c(Nc3ccc4nccnc4c3P(C)(C)=O)n2)c(OC)cc1N1CCC(N2CCN(CC3CN(c4ccc(C5CCC(=O)NC5=O)c(C#N)c4)C3)CC2)CC1 (stereo not drawn) [Example 251, 5-(3-((4-(1-(4-((5-bromo-4-((5-(dimethylphosphoryl)quinoxalin-6-yl)amino)pyrimidin-2-yl)amino)-2-ethyl-5-methoxyphenyl)piperidin-4-yl)piperazin-1-yl)methyl)azetidin-1-yl)-2-(2,6-dioxopiperidin-3-yl)benzonitrile] | 87% | 2.93 nM | 82.01% | 7.72 nM
CCc1cc(Nc2ncc(Br)c(Nc3ccc4nccnc4c3P(C)(C)=O)n2)c(OC)cc1N1CCC(N2CCN(CC3CN(c4ccc(C5CCC(=O)NC5=O)c(F)c4)C3)CC2)CC1 (stereo not drawn) [Example 252, 3-(4-(3-((4-(1-(4-((5-bromo-4-((5-(dimethylphosphoryl)quinoxalin-6-yl)amino)pyrimidin-2-yl)amino)-2-ethyl-5-methoxyphenyl)piperidin-4-yl)piperazin-1-yl)methyl)azetidin-1-yl)-2-fluorophenyl)piperidine-2,6-dione] | 80.8% | 34.8 nM | 85.86% | 17.1 nM
CCc1cc(Nc2ncc(Br)c(Nc3ccc4nccnc4c3P(C)(C)=O)n2)c(OC)cc1N1CCC(N2CCN(CC3CN(c4cc(F)c(C5CCC(=O)NC5=O)c(F)c4)C3)CC2)CC1 (stereo not drawn) [Example 253, 3-(4-(3-((4-(1-(4-((5-bromo-4-((5-(dimethylphosphoryl)quinoxalin-6-yl)amino)pyrimidin-2-yl)amino)-2-ethyl-5-methoxyphenyl)piperidin-4-yl)piperazin-1-yl)methyl)azetidin-1-yl)-2,6-difluorophenyl)piperidine-2,6-dione] | 86.3% | 19.8 nM | 94.79% | 7.09 nM
CCc1cc(Nc2ncc(Br)c(Nc3ccc4nc(C)ccc4c3P(C)(C)=O)n2)c(OC)cc1N1CCC(N2CCN(CCN(C)c3cccc4c3CN(C3CCC(=O)NC3=O)C4=O)CC2)CC1 (stereo not drawn) [Example 256, 3-(4-((2-(4-(1-(4-((5-bromo-4-((5-(dimethylphosphoryl)-2-methylquinolin-6-yl)amino)pyrimidin-2-yl)amino)-2-ethyl-5-methoxyphenyl)piperidin-4-yl)piperazin-1-yl)ethyl)(methyl)amino)-1-oxoisoindolin-2-yl)piperidine-2,6-dione] | 91.8% | 7.84 nM | 94.38% | 1.78 nM
CCc1cc(Nc2ncc(Br)c(Nc3ccc4nc(C)ccc4c3P(C)(C)=O)n2)c(OC)cc1N1CCC(N2CCN(CCc3ccc4nn(C5CCC(=O)NC5=O)cc4c3)CC2)CC1 (stereo not drawn) [Example 257, 3-(5-(2-(4-(1-(4-((5-bromo-4-((5-(dimethylphosphoryl)-2-methylquinolin-6-yl)amino)pyrimidin-2-yl)amino)-2-ethyl-5-methoxyphenyl)piperidin-4-yl)piperazin-1-yl)ethyl)-2H-indazol-2-yl)piperidine-2,6-dione] | 90.7% | 17.4 nM | 93.75% | 3.94 nM
CCc1cc(Nc2ncc(Br)c(Nc3ccc4nccnc4c3P(C)(C)=O)n2)c(OC)cc1N1CCC(N2CCN(CC3CCN(c4cccc(C5CCC(=O)NC5=O)c4)CC3)CC2)CC1 (stereo not drawn) [Example 264, 3-(3-(4-((4-(1-(4-((5-bromo-4-((5-(dimethylphosphoryl)quinoxalin-6-yl)amino)pyrimidin-2-yl)amino)-2-ethyl-5-methoxyphenyl)piperidin-4-yl)piperazin-1-yl)methyl)piperidin-1-yl)phenyl)piperidine-2,6-dione] | 86.2% | 61 nM | 74.58% | 17.1 nM
COc1cc(N2CCC(N3CC4CC(C3)N4CCC3CCN(c4cc(F)c(C5CCC(=O)NC5=O)c(F)c4)CC3)CC2)c(C)cc1Nc1ncc(Br)c(Nc2ccc3nccnc3c2P(C)(C)=O)n1 (stereo not drawn) [Example 266, 3-(4-(4-(2-(3-(1-(4-((5-bromo-4-((5-(dimethylphosphoryl)quinoxaline-6-yl)amino)pyrimidin-2-yl)amino)-5-methoxy-2-methylphenyl)piperidin-4-yl)-3,6-diazabicyclo[3.1.1]heptan-6-yl)ethyl)piperidin-1-yl)-2,6-difluorophenyl)piperidine-2,6-dione] | 73.6% | 81.9 nM | 83.88% | 50.3 nM
COc1cc(N2CCC(N3C[C@H]4C[C@@H]3CN4CCC3CCN(c4cc(F)c(C5CCC(=O)NC5=O)c(F)c4)CC3)CC2)c(C)cc1Nc1ncc(Br)c(Nc2ccc3nccnc3c2P(C)(C)=O)n1 (stereo partly drawn) [Example 267, 3-(4-(4-(2-((1R,4R)-5-(1-(4-((5-bromo-4-((5-(dimethylphosphoryl)quinoxalin-6-yl)amino)pyrimidin-2-yl)amino)-5-methoxy-2-methylphenyl)piperidin-4-yl)-2,5-diazabicyclo[2.2.1]heptan-2-yl)ethyl)piperidin-1-yl)-2,6-difluorophenyl)piperidine-2,6-dione] | 90.3% | 47.7 nM | 93.96% | 17.9 nM
COc1cc(N2CCC(N3C[C@@H]4C[C@H]3CN4CCC3CCN(c4cc(F)c(C5CCC(=O)NC5=O)c(F)c4)CC3)CC2)c(C)cc1Nc1ncc(Br)c(Nc2ccc3nccnc3c2P(C)(C)=O)n1 (stereo partly drawn) [Example 268, 3-(4-(4-(2-((1S,4S)-5-(1-(4-((5-bromo-4-((5-(dimethylphosphoryl)quinoxalin-6-yl)amino)pyrimidin-2-yl)amino)-5-methoxy-2-methylphenyl)piperidin-4-yl)-2,5-diazabicyclo[2.2.1]heptan-2-yl)ethyl)piperidin-1-yl)-2,6-difluorophenyl)piperidine-2,6-dione] | 90.5% | 33.5 nM | 93.75% | 22 nM
CCc1cc(Nc2ncc(Cl)c(Nc3ccc4nccnc4c3P(C)(C)=O)n2)c(OC)cc1N1CCC(N2CCN(CCC3CCN(c4cc(F)c(C5CCC(=O)NC5=O)c(F)c4)CC3)CC2)CC1 (stereo not drawn) [Example 269, 3-(4-(4-(2-(4-(1-(4-((5-chloro-4-((5-(dimethylphosphoryl)quinoxalin-6-yl)amino)pyrimidin-2-yl)amino)-2-ethyl-5-methoxyphenyl)piperidin-4-yl)piperazin-1-yl)ethyl)piperidin-1-yl)-2,6-difluorophenyl)piperidine-2,6-dione] | 88.8% | 43.7 nM | 95.39% | 21.5 nM
CCc1cc(Nc2ncc(Br)c(Nc3ccc4nccnc4c3P(C)(C)=O)n2)c(OC)cc1N1CCC(N2CCN(C(=O)CC3CCN(c4cc(F)c(C5CCC(=O)NC5=O)c(F)c4)CC3)CC2)CC1 (stereo not drawn) [Example 274, 3-(4-(4-(2-(4-(1-(4-((5-bromo-4-((5-(dimethylphosphoryl)quinoxalin-6-yl)amino)pyrimidin-2-yl)amino)-2-ethyl-5-methoxyphenyl)piperidin-4-yl)piperazin-1-yl)-2-oxoethyl)piperidin-1-yl)-2,6-difluorophenyl)piperidine-2,6-dione] | 96% | 24.3 nM | 89.85% | 15.9 nM
CCc1cc(Nc2ncc(Br)c(Nc3ccc4nccnc4c3P(C)(C)=O)n2)c(OC)cc1N1CCC(N2CCN(CCc3ccc(C4(C)CCC(=O)NC4=O)cc3)CC2)CC1 (stereo not drawn) [Example 280, 3-(4-(2-(4-(1-(4-((5-bromo-4-((5-(dimethylphosphoryl)quinoxalin-6-yl)amino)pyrimidin-2-yl)amino)-2-ethyl-5-methoxyphenyl)piperidin-4-yl)piperazin-1-yl)ethyl)phenyl)-3-methylpiperidine-2,6-dione] | 76% | 248 nM | 68.21% | 152 nM
CCc1cc(Nc2ncc(Br)c(Nc3ccc4nccnc4c3P(C)(C)=O)n2)c(OC)cc1N1CCC(N2CCN(C3CCN(c4ccc(C5CCC(=O)NC5=O)cc4)C3)CC2)CC1 (stereo not drawn) [Example 281, 3-(4-(3-(4-(1-(4-((5-bromo-4-((5-(dimethylphosphoryl)quinoxalin-6-yl)amino)pyrimidin-2-yl)amino)-2-ethyl-5-methoxyphenyl)piperidin-4-yl)piperazin-1-yl)pyrrolidin-1-yl)phenyl)piperidine-2,6-dione] | 74.6% | 63.3 nM | 67.1% | 43.3 nM
CCc1cc(Nc2ncc(Br)c(Nc3ccc4nccnc4c3P(C)(C)=O)n2)c(OC)cc1N1CCC(N2CCN(CCCCc3cc(F)c(C4CCC(=O)NC4=O)c(F)c3)CC2)CC1 (stereo not drawn) [Example 282, 3-(4-(4-(4-(1-(4-((5-bromo-4-((5-(dimethylphosphoryl)quinoxalin-6-yl)amino)pyrimidin-2-yl)amino)-2-ethyl-5-methoxyphenyl)piperidin-4-yl)piperazin-1-yl)butyl)-2,6-difluorophenyl)piperidine-2,6-dione] | 85% | 21.5 nM | 93.51% | 15.2 nM
CCc1cc(Nc2ncc(Br)c(Nc3ccc4nccnc4c3P(C)(C)=O)n2)c(OC)cc1N1CCC(N2CCN(C[C@H]3C[C@H](c4ccc(NC5CCC(=O)NC5=O)cc4)C3)CC2)CC1 (stereo partly drawn) [Example 284, 3-((4-((1r,3r)-3-((4-(1-(4-((5-bromo-4-((5-(dimethylphosphoryl)quinoxalin-6-yl)amino)pyrimidin-2-yl)amino)-2-ethyl-5-methoxyphenyl)piperidin-4-yl)piperazin-1-yl)methyl)cyclobutyl)phenyl)amino)piperidine-2,6-dione] | 75.5% | 81.4 nM | 77.49% | 61.2 nM
